From ChEMBL document CHEMBL3525905, “Brain distribution and bioavailability of elacridar after different routes of administration in the mouse” (Drug Metab Dispos, 2012)

Legend:
[1] = […] Kp, ratio of AUC in brain to plasma in wild type FVB mouse plasma at 10 mg/kg, ip; format: ADME, organism-based; design: dose 10 mg/kg, route intraperitoneal; conditions: brain and plasma
Plasma [2] = assay: Bioavailability in wild type FVB mouse at 100 mg/kg, ip; format: ADME, organism-based; conditions: in vivo
[3] = Tmax in wild type FVB mouse plasma at 2.5 mg/kg, iv; format: ADME, organism-based; design: dose 2.5 mg/kg, route intravenous
[4] = Terminal half life in wild type FVB mouse plasma at 100 mg/kg, po; format: ADME, organism-based; design: dose 100 mg/kg, route oral; conditions: read-out: beta t1/2 (converted)
[5] = Terminal half life in wild type FVB mouse brain at 100 mg/kg, po; format: ADME, organism-based; design: dose 100 mg/kg, route oral; conditions: read-out: beta t1/2 (converted)
[6] = Tmax in wild type FVB mouse brain at 100 mg/kg, po; format: ADME, organism-based; design: dose 100 mg/kg, route oral
[7] = AUC (0 to last) in wild type FVB mouse brain at 100 mg/kg, po; format: ADME, organism-based; design: time 0 - last, dose 100 mg/kg, route oral
[8] = AUC (0 to last) in wild type FVB mouse plasma at 100 mg/kg, po; format: ADME, organism-based; design: time 0 - last, dose 100 mg/kg, route oral
[9] = Apparent plasma clearance in wild type FVB mouse at 100 mg/kg, po; format: ADME, organism-based; design: dose 100 mg/kg, route oral
[10] = AUC (0 to last) in wild type FVB mouse brain at 100 mg/kg, ip; format: ADME, organism-based; design: time 0 - last, dose 100 mg/kg, route intraperitoneal
[11] = AUC (0 to last) in wild type FVB mouse plasma at 100 mg/kg, ip; format: ADME, organism-based; design: time 0 - last, dose 100 mg/kg, route intraperitoneal
[12] = Terminal half life in wild type FVB mouse brain at 2.5 mg/kg, iv; format: ADME, organism-based; design: dose 2.5 mg/kg, route intravenous; conditions: read-out: beta t1/2 (converted)
[13] = AUC (0 to infinity) in wild type FVB mouse plasma at 100 mg/kg, po; format: ADME, organism-based; design: time infinity, dose 100 mg/kg, route oral
Plasma [14] = assay: AUC (0 to infinity) in wild type FVB mouse plasma at 100 mg/kg, ip; format: ADME, organism-based; design: time infinity, dose 100 mg/kg, route intraperitoneal; conditions: in vivo
[15] = Cmax in wild type FVB mouse brain at 2.5 mg/kg, iv; format: ADME, organism-based; design: dose 2.5 mg/kg, route intravenous
[16] = Cmax in wild type FVB mouse plasma at 2.5 mg/kg, iv; format: ADME, organism-based; design: dose 2.5 mg/kg, route intravenous
[17] = Cmax in wild type FVB mouse plasma at 100 mg/kg, ip; format: ADME, organism-based; design: dose 100 mg/kg, route intraperitoneal
[18] = Tmax in wild type FVB mouse plasma at 100 mg/kg, ip; format: ADME, organism-based; design: dose 100 mg/kg, route intraperitoneal
[19] = Tmax in wild type FVB mouse brain at 2.5 mg/kg, iv; format: ADME, organism-based; design: dose 2.5 mg/kg, route intravenous
[20] = Cmax in wild type FVB mouse plasma at 100 mg/kg, po; format: ADME, organism-based; design: dose 100 mg/kg, route oral
[21] = AUC (0 to last) in wild type FVB mouse plasma at 2.5 mg/kg, iv; format: ADME, organism-based; design: time 0 - last, dose 2.5 mg/kg, route intravenous
[22] = Apparent oral volume of distribution in wild type FVB mouse plasma at 2.5 mg/kg, iv; format: ADME, organism-based; design: dose 2.5 mg/kg
[23] = Tmax in wild type FVB mouse plasma at 100 mg/kg, po; format: ADME, organism-based; design: dose 100 mg/kg, route oral
[24] = Ratio of AUC in brain to plasma in wild type FVB mouse plasma at 100 mg/kg, ip; format: ADME, organism-based; design: dose 100 mg/kg, route intraperitoneal; conditions: brain and plasma
[25] = Tmax in wild type FVB mouse brain at 100 mg/kg, ip; format: ADME, organism-based; design: dose 100 mg/kg, route intraperitoneal
[26] = AUC (0 to infinity) in wild type FVB mouse brain at 2.5 mg/kg, iv; format: ADME, organism-based; design: time infinity, dose 2.5 mg/kg, route intravenous
Plasma [27] = assay: AUC (0 to infinity) in wild type FVB mouse plasma at 2.5 mg/kg, iv; format: ADME, organism-based; design: time infinity, dose 2.5 mg/kg, route intravenous; conditions: in vivo
[28] = Terminal half life in wild type FVB mouse plasma at 2.5 mg/kg, iv; format: ADME, organism-based; design: dose 2.5 mg/kg, route intravenous; conditions: read-out: beta t1/2 (converted)
[29] = Apparent oral volume of distribution in wild type FVB mouse at 100 mg/kg, po; format: ADME, organism-based; design: dose 100 mg/kg, route oral; conditions: plasma
[30] = Apparent oral volume of distribution in wild type FVB mouse plasma at 100 mg/kg, ip; format: ADME, organism-based; design: dose 100 mg/kg
[31] = Ratio of AUC in brain to plasma in wild type FVB mouse plasma at 2.5 mg/kg, iv; format: ADME, organism-based; design: dose 2.5 mg/kg, route intravenous; conditions: brain and plasma
[32] = AUC (0 to last) in wild type FVB mouse brain at 2.5 mg/kg, iv; format: ADME, organism-based; design: time 0 - last, dose 2.5 mg/kg, route intravenous
[33] = Cmax in wild type FVB mouse brain at 100 mg/kg, po; format: ADME, organism-based; design: dose 100 mg/kg, route oral
[34] = Cmax in wild type FVB mouse brain at 100 mg/kg, ip; format: ADME, organism-based; design: dose 100 mg/kg, route intraperitoneal
[35] = AUC (0 to infinity) in wild type FVB mouse brain at 100 mg/kg, po; format: ADME, organism-based; design: time infinity, dose 100 mg/kg, route oral
[36] = Ratio of AUC in brain to plasma in wild type FVB mouse plasma at 100 mg/kg, po; format: ADME, organism-based; design: dose 100 mg/kg, route oral; conditions: brain and plasma
[37] = Apparent plasma clearance in wild type FVB mouse plasma at 100 mg/kg, ip; format: ADME, organism-based; design: dose 100 mg/kg, route intraperitoneal
[38] = Lipophilicity, logP of the compound; format: physicochemical; conditions: octanol/water
[39] = Oral bioavailability in wild type FVB mouse at 100 mg/kg; format: ADME, organism-based; conditions: plasma
Plasma [40] = assay: Bioavailability in wild type FVB mouse at 2.5 mg/kg, iv; format: ADME, organism-based; conditions: in vivo
[41] = AUC (0 to infinity) in wild type FVB mouse brain at 100 mg/kg, ip; format: ADME, organism-based; design: dose 100 mg/kg, route intraperitoneal, time infinity
[42] = Terminal half life in wild type FVB mouse plasma at 100 mg/kg, ip; format: ADME, organism-based; design: dose 100 mg/kg, route intraperitoneal; conditions: read-out: beta t1/2 (converted)
Plasma [43] = assay: Apparent plasma clearance in wild type FVB mouse plasma at 2.5 mg/kg, iv; format: ADME, organism-based; design: dose 2.5 mg/kg, route intravenous; conditions: in vivo
[44] = Terminal half life in wild type FVB mouse brain at 100 mg/kg, ip; format: ADME, organism-based; design: dose 100 mg/kg, route intraperitoneal; conditions: read-out: beta t1/2 (converted)

Kp [1]: 0.0784
F (Plasma [2]): 13%
Tmax [3]: 0.5 h
half-life [4]: 20 h
half-life [5]: 16 h
Tmax [6]: 8 h
AUC(0-t) [7]: 64800 ng·h/mL
AUC(0-t) [8]: 13200 ng·h/mL
CL/F [9]: 2.05 mL/min
AUC(0-t) [10]: 332 ng·h/mL
AUC(0-t) [11]: 1060 ng·h/mL
half-life [12]: 1.5 h
AUC(0-inf) [13]: 24300 ng·h/mL
AUC (Plasma [14]): 90.3 µg·min/mL
Cmax [15]: 1050 ng/mL
Cmax [16]: 564 ng/mL
Cmax [17]: 295 ng/mL
Tmax [18]: 0.5 h
Tmax [19]: 0.5 h
Cmax [20]: 780 ng/mL
AUC(0-t) [21]: 2310 ng·h/mL
Vd/F [22]: 0.17 L
Tmax [23]: 8 h
Kp [24]: 0.48
Tmax [25]: 4 h
AUC(0-inf) [26]: 2190 ng·h/mL
AUC (Plasma [27]): 161.4 µg·min/mL
half-life [28]: 4.4 h
Vd/F [29]: 3.5 L
Vd/F [30]: 12.3 L
Kp [31]: 0.82
AUC(0-t) [32]: 2140 ng·h/mL
Cmax [33]: 4340 ng/mL
Cmax [34]: 61 ng/mL
AUC(0-inf) [35]: 105000 ng·h/mL
Kp [36]: 4.31
CL/F [37]: 33.2 mL/min
logP [38]: 5.67
bioavailability [39]: 22%
F (Plasma [40]): 100%
AUC(0-inf) [41]: 725 ng·h/mL
half-life [42]: 4.3 h
CL/F (Plasma [43]): 0.46 mL/min
half-life [44]: 9.2 h
SMILES: COc1cc2c(cc1OC)CN(CCc1ccc(NC(=O)c3cccc4c(=O)c5cccc(OC)c5[nH]c34)cc1)CC2 [ELACRIDAR]
